Test results as given in patent US10865196B2, “Compounds for treatment of cancer” (University of Tennessee Research Foundation, priority 2008, dated 2020).
Values joined by “and” are separate entries in the source; they are usually repeats but may differ in a detail not shown here. Equal entries are not always repeated. Where two headings read alike, the source gives them in different places.

Columns and labels:
[1] = pharmacokinetic study in Sprague-Dawley rats; conditions: rat
[2] = test system: NCI-60 human tumor cell lines; test: NCI-60 screening assay
[3] = test system: LNCaP prostate cancer cells; test: cell cycle analysis, propidium iodide; assay type: cell-based, human; conditions: 24 h
[4] = pharmacokinetic study in ICR mice; conditions: mouse, IV 10 mg/kg
[5] = test system: melanoma (A375, B16-F1) and prostate cancer cells (DU145, PC-3, LNCaP, PPC-1); test: SRB assay, range over melanoma and prostate cancer cell lines; assay type: cell-based; conditions: range over the examined cell lines; read-out: IC50 over melanoma and prostate cancer cell lines
Description: (§1) For melanoma assays, one human melanoma cell line (A375) and one mouse melanoma cell line (B16-F1) were used. […] Fibroblast cells were used as a control to determine the selectivity of these compounds against melanoma. Human dermal fibroblast cells were purchased from Cascade Biologics, Inc., Portland, Oreg., USA. […] Cells were exposed to a wide range of concentrations for 48 h in round-bottomed 96-well plates. […] After cells were air-dried overnight and stained with SRB solution, total proteins were measured at 560 nm with a plate reader.

[6] = test system: Human A375 malignant melanoma cells; test: A375 melanoma colony formation; assay type: cell-based; conditions: 10 days
Description: Human A375 malignant melanoma cells were plated at a colony-forming density (200 cells per well on six well plates). Cells were grown in DMEM medium (GIBCO, Invitrogen Corp., Carlsbad, Calif.) supplemented with charcoal-stripped fetal bovine serum (HyClone, Logan, Utah) and an antibiotic-antimycotic solution (Sigma, St. Louis, Mo.) at 37° C. in an atmosphere of 95% air and 5% CO2. […] Cells were grown for 10 days and colonies were fixed with 4% paraformaldehyde in PBS at 4° C. The fixed colonies were washed with distilled water, stained with 0.1% crystalline blue for 30 min and rinsed with distilled water to remove excess of the dye. Plates were photographed and colony formations were examined by eye and under the microscope.

PPC-1 = test: SRB antiproliferation assay, PPC-1 prostate cancer; conditions: read-out: IC50 PPC-1; SRB
PC-3 = test: SRB antiproliferation assay, PC-3 prostate cancer
melanoma cells = test: SRB assay, melanoma cells; assay type: cell-based; conditions: range over melanoma cell lines; read-out: IC50 values against melanoma cells
Description: as §1

LNCaP = test: SRB antiproliferation assay, LNCaP prostate cancer; conditions: read-out: IC50 LNCaP; SRB
A375 = test: SRB antiproliferation assay, A375 melanoma; assay type: cell-based, human; conditions: Homo sapiens, A-375, SRB; read-out: IC50 A375 (converted)
Excerpt: (§2) For melanoma assays, one human melanoma cell line (A375) and one mouse melanoma cell line (B16-F1) were used. […] Fibroblast cells were used as a control to determine the selectivity of these compounds against melanoma. Human dermal fibroblast cells were purchased from Cascade Biologics, Inc., Portland, Oreg., USA.

B16-F1 = test: SRB antiproliferation assay, B16-F1 melanoma; assay type: cell-based, mouse; conditions: Mus musculus, B16-F1, SRB; read-out: IC50 B16-F1 (converted)
Excerpt: as §2

DU 145 = test: SRB antiproliferation assay, DU 145 prostate cancer; conditions: read-out: IC50 DU 145; SRB
[7] = test system: prostate cancer cells (LNCaP, PC-3, DU-145, PPC-1); test: SRB assay, prostate cancer cells; assay type: cell-based, human; conditions: range over prostate cancer cell lines, read-out: IC50 values against prostate cancer cells
B16-F1 mouse melanoma = test: B16-F1 melanoma tumor in C57BL/6 mice; assay type: in vivo; conditions: B16-F1 in C57BL/6 mice, 6 mg/kg daily i.p.
Description: B16 tumors will grow in a fully immunocompetent host, in which case the tumor progression may more accurately replicate melanoma growth. Logarithmic growth phase B16-F1 (3.8×10^5) cells were injected s.c. into the right dorsal flank of C57BL/6 mice. When tumors were palpable, mice were randomized into a control and a treatment group (n=9). […] Body weights were also recorded. Tumor volume was expressed as cubic millimeters. […] There was no significant body weight loss (<5%), and all mice had normal activities during the experiments.

WM164 = test: SRB antiproliferation assay, WM-164 melanoma; assay type: cell-based; conditions: Homo sapiens
[8] = metabolic stability in human liver microsomes; conditions: Phase I conditions, FIG. 18
MES-SA/DX5 = test: SRB antiproliferation assay, doxorubicin-resistant MES-SA/DX5; conditions: Homo sapiens, MES-SA/Dx5, 96 h, read-out: IC50 in the SRB, MES-SA/DX5, uterine MDR, 96 h, N = 3
NCI/ADR-RES = test: SRB antiproliferation assay, P-gp over-expressing NCI/ADR-RES; conditions: Homo sapiens, NCI/ADR-RES, 96 h, read-out: IC50 in the SRB, NCI/ADR-RES
MES-SA = test: SRB antiproliferation assay, MES-SA uterine cancer; conditions: Homo sapiens, 96 h, read-out: IC50 in the SRB, MES-SA
MCF7 = test: SRB antiproliferation assay, MCF7 breast cancer; conditions: Homo sapiens, MCF7, 96 h, read-out: IC50 in the SRB, MCF7
C26 = test: SRB antiproliferation assay, C26 colon cancer; conditions: C26, 96 h, read-out: IC50 in the SRB, C26
A549 = test: SRB antiproliferation assay, A549 lung cancer; conditions: Homo sapiens, A549, 96 h, read-out: IC50 in the SRB, A549
OVCAR-8 = test: SRB antiproliferation assay, OVCAR-8 ovarian cancer; conditions: Homo sapiens, OVCAR-8, 96 h, read-out: IC50 in the SRB, OVCAR8
HUVEC = test: endothelial cell growth inhibition SRB, HUVEC; assay type: cell-based, human; conditions: Homo sapiens, HUVEC; SRB, N = 3, growth factor-supplemented endothelial cells
T47D = test: cell growth inhibition SRB, T47D; assay type: cell-based; conditions: Homo sapiens, N = 3, Table 14
Excerpt: (§3) Cell growth inhibition studies. […] Cells were stained with sulphorhodamine B (SRB) solution.

PC3 = test: cell growth inhibition SRB, PC3 (vascular study); assay type: cell-based; conditions: Homo sapiens, PC-3, N = 3, Table 14
Excerpt: as §3

[9] = test system: confluent HUVEC monolayers; test: endothelial monolayer permeability assay; assay type: cell-based, human; conditions: leakage of FITC-dextran (MW 40,000) after 1, 2 and 4 h
Excerpt: Endothelial monolayer permeability assay.

[10] = test system: colchicine-binding site on tubulin; test: competitive mass binding assay, colchicine-tubulin binding; conditions: tubulin 1 mg/mL
[11] = 5 mg/kg injected, 20 min-48 h, 5 mg/kg

## COc1cc(C(=O)c2csc(-c3ccccc3)n2)cc(OC)c1OC [8f, (2-Phenyl-thiazol-4-yl)-(3,4,5-trimethoxy-phenyl)-methanone]
[1]; IV 2.5 mpk
  RatPK IV CI at 2.5 mpk: 7.7 (2.5 mpk) mL/min/kg
  RatPK IV V at 2.5 mpk: 4.9 (2.5 mpk) L/kg
[2]; Homo sapiens, read-out: NCI-60 GI50 values
  GI50: < 10 nM
[2]; against most cell lines
  NCI-60 TGI values: micromolar range
[3]; 10 nM
  effect on cell cycle distribution: no effect
[3]; 50 nM, about 10% in untreated cells
  proportion of cells in G2/M phase: 57%
[3]; 200 nM
  proportion of cells in G2/M phase: 63%
[3]; 500 nM
  proportion of cells in G2/M phase: 49%
[4]
  MousePK_IV10mgk_CI: 130 mL/min/kg
  MousePK_IV10mgk_V: 4.9 Lkg
[5]
  IC50: 21 to 71 nM
[6]; A375, 0.03 μM
  melanoma colony formation: significantly inhibit
[6]; A375, 0.3 and 3 μM
  melanoma colony formation: completely inhibited

## COc1cc(C(=O)c2csc(-c3ccccc3F)n2)cc(OC)c1OC [8l, [2-(2-Fluorophenyl)-thiazol-4-yl]-(3,4,5-trimethoxyphenyl)-methanone]
PPC-1
  IC50: 52 nM
other
  melting point: 90 to 102 °C
PC-3; read-out: IC50 PC-3, SRB
  IC50: 82 nM
Melanoma cells
  IC50: 27 to 30 nM
LNCaP
  IC50: 53 nM
A375
  IC50: 30 nM
B16-F1
  IC50: 27 nM
DU 145
  IC50: 114 nM
[7]; Homo sapiens
  IC50: 52 to 114 nM

## COc1cc(C(=O)c2csc(-c3cccc(F)c3)n2)cc(OC)c1OC [8m, [2-(3-Fluorophenyl)-thiazol-4-yl](3,4,5-trimethoxyphenyl)-methanone]
PPC-1
  IC50: 21 nM
PC-3; read-out: IC50 PC-3, SRB
  IC50: 24 nM
Melanoma cells
  IC50: 287 to 304 nM
LNCaP
  IC50: 11 nM
A375
  IC50: 304 nM
B16-F1
  IC50: 287 nM
DU 145
  IC50: 35 nM
[7]; Homo sapiens
  IC50: 23 to 46 nM

## COc1cc(C(=O)c2csc(-c3ccc(F)cc3)n2)cc(OC)c1OC [8n, [2-(4-Fluorophenyl)-thiazol-4-yl]-(3,4,5-trimethoxyphenyl)-methanone]
B16-F1 mouse melanoma
  body weight loss: < 5%
  tumor growth inhibition: significant tumor growth inhibition
Melanoma cells
  IC50: 33 to 43 nM
[5]
  IC50: 6 to 43 nM
[6]; A375, 0.03 μM
  melanoma colony formation: significantly inhibit
[6]; A375, 0.3 and 3 μM
  melanoma colony formation: completely inhibited
[7]; Homo sapiens
  IC50: 6 to 13 nM
[7]
  IC50: 6 to 12 nM

## COc1cc(C(=O)c2c[nH]c(-c3cn(S(=O)(=O)c4ccccc4)c4ccccc34)n2)cc(OC)c1OC [17yab, (2-(1-(Phenylsulfonyl)-1H-indol-3-yl)-1H-imidazol-4-yl)(3,4,5-trimethoxyphenyl)methanone]
PPC-1
  IC50: 209 nM
PC-3; read-out: IC50 PC-3, SRB
  IC50: 148 nM
LNCaP
  IC50: 234 nM
WM164
  IC50: 468 nM
A375
  IC50: 481 nM
B16-F1
  IC50: 539 nM
DU 145
  IC50: 592 nM

## COc1cc(C(=O)c2csc(-c3ccc4c(ccn4C)c3)n2)cc(OC)c1OC [31a]
[8]
  stability in human liver microsomes, in words: acceptable stability
PC-3; read-out: IC50 in the SRB, PC3, 96 h treatment, N = 3, Table 15
  IC50: 5 nM
MES-SA/DX5
  IC50: 18 nM
NCI/ADR-RES
  IC50: 14 nM
MES-SA
  IC50: 18 nM
MCF7
  IC50: 22 nM
C26
  IC50: 16 nM
A549
  IC50: 21 nM
OVCAR-8
  IC50: 16 nM

## COc1ccc(/C=C\c2cc(OC)c(OC)c(OC)c2)cc1O [CA4, reference compound]
HUVEC
  IC50: 1.2 nM
T47D
  IC50: 6 nM
PC3
  IC50: 3.2 nM
[9]
  permeability of endothelial cell monolayer: increased permeability

## COc1cc(C(=O)c2csc(-c3ccc4[nH]ccc4c3)n2)cc(OC)c1OC [compound 31]
[8]
  stability in human liver microsomes, in words: acceptable stability
[1]; [11]
  AUC: 210 µg·min/mL and 249 µg·min/mL
  CI: 23 mL/min/kg and 18 mL/min/kg
PC-3; read-out: IC50 PC-3, SRB
  IC50: 7.6 nM
MES-SA/DX5
  IC50: 8 nM
NCI/ADR-RES
  IC50: 5 nM
MES-SA
  IC50: 6 nM
MCF7
  IC50: 11 nM
A375
  IC50: 25 nM
B16-F1
  IC50: 8.3 nM
C26
  IC50: 5 nM
A549
  IC50: 9 nM
OVCAR-8
  IC50: 11 nM

## CC[C@]1(O)C[C@@H]2CN(CCc3c([nH]c4ccccc34)[C@@](C(=O)OC)(c3cc4c(cc3OC)N(C)[C@H]3[C@@](O)(C(=O)OC)[C@H](OC(C)=O)[C@]5(CC)C=CCN6CC[C@]43[C@@H]65)C2)C1 [vinblastine, reference compound]
[10]
  competition with colchicine for tubulin binding: did not inhibit the colchicine-tubulin binding
